Measurements as given in patent publication US20230322723A1, “COMPOUNDS FOR SUPPRESSING EGFR MUTANT CANCER AND PHARMACEUTICAL USE THEREOF” (J2H BIOTECH INC., priority 2020, published 2023).

Assays:
EGFR^L858R+T790M+C797S = target: T1, EGFR^L858R+T790M+C797S (Homo sapiens, UniProt P00533, C797S/L858R/T790M); experiment: EGFR protein degradation test (Western blot) in Ba/F3 cells expressing mutant EGFR L858R+T790M+C797S (LTC); assay type: cell-based; settings: compounds at 0.1 μM and 1 μM, 24 hours, Western blot with EGFR antibody
T1 construct: expressed in transfected cells; host or cells: Ba/F3
T1 sequence (P00533 25-1210 T790M/C797S/L858R): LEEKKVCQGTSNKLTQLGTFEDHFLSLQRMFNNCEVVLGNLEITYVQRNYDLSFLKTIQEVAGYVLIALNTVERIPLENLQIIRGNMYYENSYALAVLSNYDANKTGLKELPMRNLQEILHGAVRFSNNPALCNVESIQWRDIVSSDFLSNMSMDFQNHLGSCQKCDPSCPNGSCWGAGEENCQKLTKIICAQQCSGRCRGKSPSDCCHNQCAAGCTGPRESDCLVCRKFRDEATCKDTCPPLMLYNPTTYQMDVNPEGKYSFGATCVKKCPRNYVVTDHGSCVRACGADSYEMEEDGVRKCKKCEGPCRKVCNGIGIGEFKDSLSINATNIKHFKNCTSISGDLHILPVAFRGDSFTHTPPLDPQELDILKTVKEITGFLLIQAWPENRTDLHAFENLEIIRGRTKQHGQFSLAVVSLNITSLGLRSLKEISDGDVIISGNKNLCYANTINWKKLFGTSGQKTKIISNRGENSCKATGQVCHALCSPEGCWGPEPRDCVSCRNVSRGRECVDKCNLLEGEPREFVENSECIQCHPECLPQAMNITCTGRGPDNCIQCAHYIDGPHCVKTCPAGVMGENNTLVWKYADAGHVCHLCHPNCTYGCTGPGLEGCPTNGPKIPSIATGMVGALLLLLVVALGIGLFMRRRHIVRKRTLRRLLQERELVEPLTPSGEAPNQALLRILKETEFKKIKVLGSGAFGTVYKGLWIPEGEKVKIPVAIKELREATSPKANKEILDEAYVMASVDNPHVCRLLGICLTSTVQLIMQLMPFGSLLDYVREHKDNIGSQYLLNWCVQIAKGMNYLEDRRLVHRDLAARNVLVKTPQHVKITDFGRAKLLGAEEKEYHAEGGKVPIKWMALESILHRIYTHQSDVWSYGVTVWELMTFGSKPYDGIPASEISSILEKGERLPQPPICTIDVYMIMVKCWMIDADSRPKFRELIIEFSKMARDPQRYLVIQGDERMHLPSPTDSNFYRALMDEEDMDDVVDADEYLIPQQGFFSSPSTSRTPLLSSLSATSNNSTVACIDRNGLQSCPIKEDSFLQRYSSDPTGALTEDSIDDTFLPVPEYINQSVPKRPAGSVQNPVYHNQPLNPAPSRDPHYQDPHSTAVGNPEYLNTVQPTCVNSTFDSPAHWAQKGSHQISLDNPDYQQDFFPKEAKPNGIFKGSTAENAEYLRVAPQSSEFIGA
In short: (§1)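 Ba/F3 cells expressing wild-type EGFR, del19+T790M+C797S or L858R+T790M+C797S EGFR were treated with compound at 0.1 μM and 1 μM for 24 h. Lysates (30 μg) were analysed by SDS-PAGE and EGFR Western blot, with bands quantified densitometrically.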

EGFR^del19+T790M+C797S = experiment: EGFR protein degradation test (Western blot) in Ba/F3 cells expressing mutant EGFR del19+T790M+C797S (DTC); assay type: cell-based; settings: compounds at 0.1 μM and 1 μM, 24 hours, Western blot with EGFR antibody
In short: as §1

[1] = Pharmacokinetic evaluation after single oral administration to ICR mice; assay type: in vivo; settings: for half-life / AUC(0-t): mouse, ICR mice, single oral dose 5 mg/kg, plasma; for AUC(0-t): read-out: AUC0-24
Method: Pharmacokinetic tests for the compounds of the present invention were conducted as below. After a single oral administration of the compound of the present invention to ICR mice, the concentration of the compound over time was followed up and analyzed.
The compound of the present invention was suspended in 10% DMSO/90% (30% HPbCD aqueous solution) and orally administered to mice at a dose of 5 mg/kg. Blood was collected at a fixed time and plasma was separated. Drug analysis was performed using HPLC (XBridge column C18, Waters, mobile phase 0.1% formic acid:acetonitrile (30:70, %/%)) and MS/MS (ESI positive, MRM). Mouse blood plasma and each commercially available standard solution were mixed at a ratio of 9:1 to prepare and calibrate at concentrations of […] 5,000 ng/mL. In addition, the preparation of QC samples was prepared by mixing the mouse blood plasma and the standard solution for QC at a ratio of 9:1, and prepared to be concentrations of 100, 750 and 2,500 ng/mL. 100 μL of the plasma sample was transferred to a centrifugation tube, and 10 μL of the internal standard solution and 300 μL of methanol were added, followed by mixing for about 30 seconds for pretreatment. The tube was centrifuged at 3,000×g (4° C.) for about 5 minutes, and the supernatant was taken and transferred to an LC vial and injected into the instrument. Then, the concentration of the compound in mouse plasma was quantified by applying a previously validated assay. For pharmacokinetic parameters, the program WinNonlin 5.2 (Pharsight, USA) was used. AUC0-t, AUC0-∞, Cmax, Tmax, and t1/2 were calculated by Noncompartment modeling (best fit). The pharmacokinetic parameter results were expressed as the mean (Mean) and standard deviation (SD), and were statistically processed using the SPSS program (Statistical Package for the Social Sciences, 10.0K, USA).

[2] = 74, 76, 77, 80, 81 vs 45, 71, 51, 65, 53
[3] = 69, 70, 75, 78, 82 vs compounds 53 and 65

Structure (SMILES) | LTC (EGFR^L858R+T790M+C797S) protein degradation (EGFR^L858R+T790M+C797S) | DTC (EGFR^del19+T790M+C797S) protein degradation (EGFR^del19+T790M+C797S) | half-life [1] [h] | AUC(0-t) [1] [ng·h/mL] | AUC compared to the corresponding compounds [1, 2] | AUC compared to the corresponding compounds [1, 3]
COc1cc(N2CCN(CC3CCN(CC(=O)N[C@H](C(=O)N4C[C@H](O)CC4C(=O)NCc4ccc(-c5scnc5C)cc4)C(C)(C)C)CC3)CC2)ccc1Nc1ncc(Cl)c(Nc2ccccc2N(C)S(C)(=O)=O)n1 (stereo in doubt) [Compound 28, (2R,4R)-1-((S)-2-(2-(4-((4-(4-((5-chloro-4-((2-(N-methylmethylsulfonamido)phenyl)amino)pyrimidin-2-yl)amino)-3-methoxyphenyl)piperazin-1-yl)methyl)piperidin-1-yl)acetamido)-3,3-dimethylbutanoyl)-4-hydroxy-N-(4-(4-methylthiazol-5-yl)benzyl)pyrrolidin-2-carboxamide] | ++ (Protein degradation > 80%) | ++ (Protein degradation > 80%) | 6.23 | 1170 | – | –
COc1cc(N2CCC(N3CCN(CCC4CCN(c5ccc6c(c5)C(=O)N(C5CCC(=O)NC5=O)C6=O)CC4)CC3)CC2)ccc1Nc1ncc(Cl)c(Nc2ccccc2N(C)S(C)(=O)=O)n1 (stereo not shown) [Compound 51, N-(2-((5-chloro-2-((4-(4-(4-(2-(1-(2-(2,6-dioxopiperidin-3-yl)-1,3-dioxoisoindolin-5-yl)piperidin-4-yl)ethyl)piperazin-1-yl)piperidin-1-yl)-2-methoxyphenyl)amino)pyrimidin-4-yl)amino)phenyl)-N-methylmethanesulfonamide] | ++ (Protein degradation > 80%) | ++ (Protein degradation > 80%) | 2.81 | 635 | – | –
COc1cc(N2CCC(N3CCN(CCC(=O)N[C@H](C(=O)N4C[C@H](O)C[C@@H]4C(=O)NCc4ccc(-c5scnc5C)cc4)C(C)(C)C)CC3)CC2)ccc1Nc1ncc(Cl)c(Nc2ccccc2N(C)S(C)(=O)=O)n1 [Compound 20, (2R,4R)-1-((S)-2-(3-(4-(1-(4-((5-chloro-4-((2-(N-methylmethylsulfonamido)phenyl)amino)pyrimidin-2-yl)amino)-3-methoxyphenyl)piperidin-4-yl)piperazin-1-yl)propanamido)-3,3-dimethylbutanoyl)-4-hydroxy-N-(4-(4-methylthiazol-5-yl)benzyl)pyrrolidin-2-carboxamide] | ++ (Protein degradation > 80%) | ++ (Protein degradation > 80%) | 8.99 | 42 | – | –
COc1cc(N2CCC(N3CCN(CCC4CCN(c5ccc6c(c5)C(=O)N(C5CCC(=O)NC5=O)C6=O)CC4)CC3)CC2)c(C)cc1Nc1ncc(Cl)c(Nc2ccccc2N(C)S(C)(=O)=O)n1 (stereo not shown) [Compound 77, N-(2-((5-chloro-2-((4-(4-(4-(2-(1-(2-(2,6-dioxopiperidin-3-yl)-1,3-dioxoisoindolin-5-yl)piperidin-4-yl)ethyl)piperazin-1-yl)piperidin-1-yl)-2-methoxy5-methylphenyl)amino)pyrimidin-4-yl)amino)phenyl)-N-methylmethanesulfonamide] | ++ (Protein degradation > 80%) | + (Protein degradation 20~80%) | 2.96 | 1170 | significantly improved AUC | –
COc1cc(N2CCN(CC3CCN(C(=O)CCc4cccc5c4C(=O)N(C4CCC(=O)NC4=O)C5=O)CC3)CC2)ccc1Nc1ncc(Cl)c(Nc2ccccc2N(C)S(C)(=O)=O)n1 (stereo not shown) [Compound 54, N-(2-((5-chloro-2-((4-(4-((1-(3-(2-(2,6-dioxopiperidin-3-yl)-1,3-dioxoisoindolin-4-yl)propanoyl)piperidin-4-yl)methyl)piperazin-1-yl)-2-methoxyphenyl)amino)pyrimidin-4-yl)amino)phenyl)-N-methylmethanesulfonamide] | ++ (Protein degradation > 80%) | ++ (Protein degradation > 80%) | 6.12 | 840 | – | –
COc1cc(N2CCN(CC3CCN(C(=O)COc4cccc5c4C(=O)N(C4CCC(=O)NC4=O)C5=O)CC3)CC2)c(C)cc1Nc1ncc(Cl)c(Nc2ccccc2N(C)S(C)(=O)=O)n1 (stereo not shown) [Compound 81, N-(2-((5-chloro-2-((4-(4-((1-(2-((2-(2,6-dioxopiperidin-3-yl)-1,3-dioxoisoindolin-4-yl)oxy)acetyl)piperidin-4-yl)methyl)piperazin-1-yl)-2-methoxy-5-methylphenyl)amino)pyrimidin-4-yl)amino)phenyl)-N-methylmethanesulfonamide] | ++ (Protein degradation > 80%) | ++ (Protein degradation > 80%) | 4.73 | 502 | significantly improved AUC | –
COc1cc(N2CCC(N3CCN(CCNc4cccc5c4C(=O)N(C4CCC(=O)NC4=O)C5=O)CC3)CC2)c(C)cc1Nc1ncc(Cl)c(Nc2ccccc2N(C)S(C)(=O)=O)n1 (stereo not shown) [Compound 74, N-(2-((5-chloro-2-((4-(4-(4-(2-((2-(2,6-dioxopiperidin-3-yl)-1,3-dioxoisoindolin-4-yl)amino)ethyl)piperazin-1-yl)piperidin-1-yl)-2-methoxy-5-methylphenyl)amino)pyrimidin-4-yl)amino)phenyl)-N-methylmethanesulfonamide] | ++ (Protein degradation > 80%) | − (Protein degradation < 20%) | 4.44 | 5520 | significantly improved AUC | –
COc1cc(N2CCC(N3CCN(CC(=O)Nc4ccc5c(c4)CN(C4CCC(=O)NC4=O)C5=O)CC3)CC2)ccc1Nc1ncc(Cl)c(Nc2ccccc2N(C)S(C)(=O)=O)n1 (stereo not shown) [Compound 47, 2-(4-(1-(4-((5-chloro-4-((2-(N-methylmethylsulfonamido)phenyl)amino)pyrimidin-2-yl)amino)-3-methoxyphenyl)piperidin-4-yl)piperazin-1-yl)-N-(2-(2,6-dioxopiperidin-3-yl)-1-oxoisoindolin-5-yl)acetamide] | ++ (Protein degradation > 80%) | ++ (Protein degradation > 80%) | 4.13 | 134 | – | –
COc1cc(N2CCN(CC3CCN(C(=O)COc4cccc5c4C(=O)N(C4CCC(=O)NC4=O)C5=O)CC3)CC2)ccc1Nc1ncc(Cl)c(Nc2ccccc2N(C)S(C)(=O)=O)n1 (stereo not shown) [Compound 53, N-(2-((5-chloro-2-((4-(4-((1-(2-((2-(2,6-dioxopiperidin-3-yl)-1,3-dioxoisoindolin-4-yl)oxy)acetyl)piperidin-4-yl)methyl)piperazin-1-yl)-2-methoxyphenyl)amino)pyrimidin-4-yl)amino)phenyl)-N-methylmethanesulfonamide] | ++ (Protein degradation > 80%) | ++ (Protein degradation > 80%) | 3.65 | 44 | – | –
COc1cc(N2CCN(CC3CCN(C(=O)[C@@H](C)Oc4cccc5c4C(=O)N(C4CCC(=O)NC4=O)C5=O)CC3)CC2)ccc1Nc1ncc(Cl)c(Nc2ccccc2N(C)S(C)(=O)=O)n1 (stereo partly shown) [Compound 69] | ++ (Protein degradation > 80%) | ++ (Protein degradation > 80%) | 3.22 | 280 | – | significantly improved AUC
COc1cc(N2CCN(CC3CCN(C(=O)[C@H](C)Nc4cccc5c4C(=O)N(C4CCC(=O)NC4=O)C5=O)CC3)CC2)c(C)cc1Nc1ncc(Cl)c(Nc2ccccc2N(C)S(C)(=O)=O)n1 (stereo partly drawn) [Compound 75, N-(2-((5-chloro-2-((4-(4-((1-((2-(2,6-dioxopiperidin-3-yl)-1,3-dioxoisoindolin-4-yl)-L-alanyl)piperidin-4-yl)methyl)piperazin-1-yl)-2-methoxy-5-methylphenyl)amino)pyrimidin-4-yl)amino)phenyl)-N-methylmethanesulfonamide] | ++ (Protein degradation > 80%) | ++ (Protein degradation > 80%) | 2.82 | 2040 | – | significantly improved AUC
